We go through 6 compounds from US20060160135A1, “SF-1 and LRH-1 modulator development” (priority 2004, published 2006).

A word on the EC50: it is the concentration at which the effect is half-maximal.

One assay has as its system SF-1. To be noted: CV-1 cells; cited from earlier work.
A further assay deals with T1, human SF-1 (Homo sapiens, UniProt Q13285).
T1 construct: For E. coli expression the SF-1 G219-T461 insert was cloned into a modified pET vector; made in house
Put plainly: AlphaScreen coactivator (SRC-1/NCoA1) recruitment to His-tagged SF-1 LBD. Format: biochemical. Particulars: for dose-dependent NCoA1/SRC1 recruitment to SF-1: FIG. 7B, liposome-washed SF-1. The text has this:
However, the lipids binding SF-1 could be partially extracted by washing the proteins with liposomes prepared using phosphatidylcholine (C22 acyl chain length). It was reasoned that such liposomes with long acyl chains could act as a sink for extracted lipids, without binding the receptors themselves. After such washing the coactivator binding by SF-1 was diminished, but could be activated by the addition of phosphatidylethanolamine (FIG. 5A). The PE 16:0 16:1 observed in the crystal structure is unavailable commercially, so it could not be readily obtained. […] (Parks et al., Science, 1999, 284:1365-8; Makishima et al., Science, 1999, 284:1362-5.)
A variety of different methods for detecting molecular interactions can be used. For example, Alpha Screen technology (Perkin Elmer) is suitable to detect the interaction of the receptor with the coactivator fragment. In this case it is suitable to engineer the ligand-binding domain of the SF-1 and LRH-1 as an N-terminally HIS-tagged protein that can bind the acceptor bead (containing Nickel moieties that will bind the HIS tag). The coactivator fragment can be synthesized containing a biotin moiety that will bind the donor bead. In the presence of ‘activating’ compounds the association of the receptor with the co-regulator may be strengthened, whereas the presence of ‘inhibitory’ compounds may destabilize this interaction. Libraries of chemicals, or derivatives, can be quantified for their effects on co-regulator binding.
Thus, in an exemplary implementation, the Alpha Screen Histidine detection (Nickel chelate) kit (Perkin Elmer) is used to detect binding between His-tagged receptor LBD and biotinylated coactivator peptides or fragments. The assay is performed in Costar 384-well white polystyrene plates (Coming Inc.), in a total volume of 20 μL. Compounds to be tested for their abilities to modulate the interaction of nuclear receptor with coactivator are added to the 384-well plate in 1 μL of DMSO or buffer in advance of addition of the receptor and coactivator proteins.
Reactions are initiated in 15 μl containing 50 nM His-tagged nuclear receptor and […] biotin-tagged coactivator fragment, using buffer containing 50 mM Bis-tris HCl (pH 7.0), 50 mM KCl, 0.05% Tween 20, 1 mM DTT, 0.1% BSA. Other buffer variations can be tested to optimize the largest difference in signals obtained using the apo receptor and receptor bound to compounds already determined to bind and activate the receptor. After the protein solutions are added to the compounds, the plate is sealed and incubated at room temp for 2 hours. After incubation, a 5 μL mixture containing streptavidin donor beads (15 μg/ml) and Ni-chelate acceptor beads (15 μg/ml) are added from the Nickel chelate kit. Plates are resealed and incubated in the dark for 2 hours at room temperature and then read in an AlphaFusion reader set at a read time of 1 s/well.
A signal is produced by the binding of coactivator to nuclear receptor that can be detected by the AlphaFusion reader (the binding brings the acceptor beads into close proximity of the donor beads, which allows the acceptor beads to detect the singlet oxygens produced by the donor beads, causing them to emit a light detected by the instrument). Data analysis can be performed using GraphPad Prism (GraphPad Software, Inc.). […]

The target of assay [1] is coactivator fragment (GST-coactivator fusion protein; the filing does not say which). As to the kind of experiment: co-expression in E. coli, metal affinity purification of His-tagged LRH-1.

T1 sequence (Q13285 219-461): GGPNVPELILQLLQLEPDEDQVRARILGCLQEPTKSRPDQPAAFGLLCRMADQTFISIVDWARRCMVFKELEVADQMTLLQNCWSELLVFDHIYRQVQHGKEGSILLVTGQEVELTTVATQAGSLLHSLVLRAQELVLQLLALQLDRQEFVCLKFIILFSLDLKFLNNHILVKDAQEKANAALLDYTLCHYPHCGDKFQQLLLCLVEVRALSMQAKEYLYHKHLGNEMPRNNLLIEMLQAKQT
T1 sequence (Q15788 595-780 partner limits assumed): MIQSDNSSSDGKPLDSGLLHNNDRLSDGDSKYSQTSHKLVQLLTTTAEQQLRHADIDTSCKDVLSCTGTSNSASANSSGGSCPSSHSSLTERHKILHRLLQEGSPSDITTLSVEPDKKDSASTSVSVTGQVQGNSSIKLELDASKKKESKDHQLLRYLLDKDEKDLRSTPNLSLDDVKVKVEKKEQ

Regarding `C[C@H](CCCC(C)(C)O)[C@H]1CC[C@H]2[C@@H]3CC=C4C[C@@H](O)CC[C@]4(C)[C@H]3CC[C@]12C` [25-hydroxycholesterol], the SF-1-dependent transcriptional activity entry in the assay on SF-1 is “modest increase”.
For the compound `C[C@@H](CO)CCC[C@@H](C)[C@H]1CC[C@H]2[C@@H]3CC=C4C[C@@H](O)CC[C@]4(C)[C@H]3CC[C@]12C` [26-hydroxycholesterol], the SF-1-dependent transcriptional activity result in the assay on SF-1 is “modest increase”.
On to `C[C@@H](CO)CCC[C@@H](C)[C@H]1CC[C@H]2[C@@H]3CC=C4C[C@@H](O)CC[C@]4(C)[C@H]3CC[C@]12C` [27-hydroxycholesterol], for which the SF-1-dependent transcriptional activity entry in the assay on SF-1 was “modest increase”.
As for `CC/C=C\C/C=C\C/C=C\CCCCCCCC(=O)OC[C@H](COP(=O)(O)OCCN)OC(=O)CCCCCCC/C=C\C/C=C\C/C=C\CC` [PE-18:3, 1,2-dilinolenoyl-sn-glycero-3-phosphoethanolamine], the “activation of wild-type SF-1 to bind NCoA1 as measured by AlphaScreen” value at human SF-1 (50 μM compound, FIG. 7A) is “activates”. Also, the “dose-dependent NCoA1/SRC1 recruitment to SF-1” value was “Dose-dependent” on human SF-1 and “dose-dependent increase” on human SF-1 (listed as PE 18:3 18:3). Further, the EC50 on human SF-1 (SF-1 protein washed with phosphatidylcholine liposomes, biotinylated GST-SRC-1 fragment) amounted to 30 µM.
Consider “His-tagged human LRH-1 LBD (S251-A495) E488K (from UniProt O00482-2) (receptor)”, for which the decrease in coactivator fragment binding compared to the LRH-1-WT protein in assay [1] came out at 70%.
Take phosphatidylethanolamine: the “coactivator binding by SF-1 after liposome washing” value on human SF-1 (SF-1 washed with phosphatidylcholine liposomes, then lipid added) is on record as “activated”.
